Reference: patent publication US20240285670A1, “THERAPEUTIC TREATMENT OF TUMORS BY BLOCKING THE HEME SYNTHESIS-EXPORT AXIS” (Università degli Studi di Torino, priority 2021, published 2024)

Experiments:
Assay type in all cases: cell-based, human
ALAS1 = assay: qRT-PCR analysis of ALAS1 expression in SKCO1 cells
SH-SY5Y cells = assay: Heme content in SHSY-5Y cells
Source text: (A) Frequency (%) of patient tumors with overexpression of FLVCR1 compared to their matched normal tissues across multiple cancer types. The number of patients showing tumor FLVCR1 overexpression relative to the total number of patients examined are indicated in the plot. Data derive from the BioXpress (Wan et al., 2015). […] Transcript abundance, normalized to beta-actin mRNA expression (for SHSY-5Y cells) or to 18s mRNA (for BTECs), is expressed as a fold increase over a calibrator sample. Data represent mean±SEM, n=4. For statistical analyses, an unpaired Student's t-test was used; ***p<0.001. (C, E) Western blot analysis of FLVCR1a expression in SHSY-5Y cells (C) and BTECs (E). Vinculin expression is shown as a loading control. Band intensities were measured by densitometry and normalized to vinculin expression. […] Values are expressed as pmol heme/mg protein. […] Values are expressed as pmol heme/mg protein. […]
(A) Heme content in SHSY5Y cells non-treated (NT) or treated with 5 mM ALA for 15 hours. Values are expressed as pmol heme/mg protein. […] Transcript abundance, normalized to beta-actin mRNA expression, is expressed as a fold increase over a calibrator sample. […] Transcript abundance, normalized to beta-actin mRNA expression, is expressed as a fold increase over a calibrator sample. […] Band intensities were measured by densitometry and normalized to beta-actin expression. […]

BTECs = assay: In vitro tubulogenesis assay on matrigel; settings: FLVCR1a-silenced vs scramble shRNA BTECs, 18 hours
Source text: (A) BTECs counting, as a readout of cell proliferation, at the indicated time points. […] Data represent mean±SEM, n=4. For statistical analyses, a two-way analysis of variance was used, followed by the Bonferroni correction for multiple group comparisons; ***p<0.001. (B) Quantification of BTECs migration rate in wound-healing assay. […] Data represent mean±SEM, n=32. For statistical analyses, a nonparametric unpaired Mann-Whitney test was used; ***p<0.001. (C) In vitro tubulogenesis assay on matrigel. […] The number of nodes counted within the neo-formed vascular networks is shown. Data represent mean±SEM; n=10. For statistical analyses, a nonparametric unpaired Mann-Whitney test was used; **p<0.01.
To assess in vitro formation of capillary-like structures, 3.5*10^4 BTECs were seeded in 24-well plates coated with BD Matrigel Matrix Growth Factor Reduced (BD Biosciences, Franklin Lakes, NJ USA, catalog n°356230). Cell organization on Matrigel was monitored using a Nikon Eclipse T-E microscope with a Nikon Plan 10×/0.10 NA objective. […] Images obtained 18 hours after the start of the experiment were analysed using Fiji open source software (Schindelin et al., 2012) (http://fiji.sc/ RRID:SCR_002285) in order to assess the number of nodes (intersections formed by at least three detectable cells) for each field. […]

With `Cl.NCC(=O)CCC(=O)O` [5-ALA, 5-Aminolevulinic acid hydrochloride] the “ALAS1 mRNA levels” value (ALAS1; SKCO1 cells, 5 mM ALA for 24 hours vs untreated) was “decreased” and the “heme content inside the cells” value (SH-SY5Y cells; 5 mM ALA for 15 hours vs non-treated) was “promoted heme accumulation inside the cells”.

“FLVCR1a shRNA: shRNA specifically down-regulating FLVCR1a without targeting FLVCR1b; pLKO.1 lentiviral clone TRCN0000059599, antisense SEQ ID No.: 2 (antisense TTGCTAATGATGCTGTACTGG; sense CCAGTACAGCATCATTAGCAA)” was tested, and the “ALAS1 expression (qRT-PCR)” value (ALAS1; FLVCR1a-silenced vs scramble shRNA SKCO1 cells) was “reduced ALAS1 expression”, the “heme accumulation upon stimulation of de-novo heme biosynthesis” value (SH-SY5Y cells; FLVCR1a-silenced vs scramble shRNA, 5 mM 5-ALA for 15 hours) was “higher heme accumulation than controls” and the “formation of microvascular network on matrigel (number of nodes)” value (BTECs) was “impaired ability to form a complex microvascular network on matrigel”.
